Among the data in patent publication US7179824B2, “Arthropodicidal anthranilamides” (E. I. du Pont de Nemours and Company, priority 2001, dated 2007) are melting point values, retold here.

Broadly, the melting point is the temperature, or range, at which the solid turns liquid. In the case of `Cc1cc(Cl)cc(C(=O)NC(C)C)c1N(C(=O)c1cc(C(F)(F)F)n[nH]1)c1ncccc1Cl` [Compound 4, N-[4-chloro-2-methyl-6-[[(1-methylethyl)amino]carbonyl]phenyl]-N-(3-chloro-2-pyridinyl)-3-(trifluoromethyl)-1H-pyrazole-5-carboxamide], the melting point was in the range of 173 to 176 °C.
